Experiments:
γ-H2AX = test: immunohistochemical staining of tumor xenograft sections, DNA damage marker; format: in vivo, nude mice; conditions: FIG. 16, panel B
Procedure: Tumor xenograft tissue sections on the slides were deparaffinized in xylene twice for 7 min each time. The slides were then rehydrated in graded ethanol, serially from 100% to 70%, followed by rinsing in dH2O. Antigen retrieval was performed using citrate buffer (0.01M, pH 6.0) with incubation in a cooker for 50 mins followed by ambient temperature cooling for 30 min. and then dH2O rinsing. Later slides were subjected to immunohistochemical (IHC) staining with primary antibodies (anti-rabbit CD31 antibody and anti-mouse γ-H2AX antibody) obtained from Abeam® following the manufacturer's instructions (Novolink Polymer Detection system, Leica Biosystems, Wetzlar, Germany).^11 After IHC processing, the slides were scanned digitally using the Panoramic 250 Flash II whole slide scanner and analyzed by 3[…] Panoramic viewer software (3[…] Ltd., Budapest, Hungary).
As BO-2590L is a DNA damaging agent, we thus investigated the effect of BO-2590L on the level of a DNA damage marker, γ-H2AX, via the use of immunohistochemical staining.

H460 cell lines = test: Annexin V staining assay; format: cell-based, human; conditions: 0.5, 1 and 2 μM, 48 hr; FIG. 7
Procedure: In this example, Annexin V staining assay was used to assess BO-2590 induced apoptotic cell death in H460 cell lines. Briefly, H460 cells were treated with BO-2590 at the concentrations of 0.5, 1 and 2 μM for 48 hr and then stained with Annexin V-FITC and propidium iodide. The stained cells were analyzed by flow cytometry.

endothelial cells = test: transwell migration assay; format: cell-based; conditions: 8 hours; FIG. 4, panel A
Procedure: In the present example, we explored whether compound BO-2590 was able to suppress the cell migration using transwell migration assay.
Briefly, the endothelial cells were placed on the upper layer of a cell permeable membrane and a solution containing BO-2590 was placed below the cell permeable membrane. Following an incubation period (8 hours), the cells that had migrated through the membrane were stained and counted under a fluorescence microscopy.

H460 lung cancer cells = test: cell cycle distribution by flow cytometry; format: cell-based, human
Procedure: We further investigated the effects of BO-2590 on cell cycle progression in H460 lung cancer cells at the concentrations of 0, 0.125, 0.25, 0.5, 1 and 2 μM for 24, 48 and 72 hr. The cell cycle distribution was analyzed by flow cytometry. […] By increasing the concentration of BO-2590, significant arrest at the G2 phase was first observed, which was followed by the arrest of the S phase progression, and finally the G1 arrest appeared at 24 hr. However, following the incubation for 48 or 72 hr, while the cell cycle slowly processed, a significant amount of the sub-G1 cells started to appear (FIG. 6). The sub-G1 cells also represented apoptotic cells.

VEGFR-2 = molecular target: T1, VEGFR-2 (Homo sapiens, UniProt P35968); test: VEGFR-2 activation, western blotting in EA.hy926 cells; format: cell-based
T1 construct: endogenous in cells; host or cells: EA.hy926 endothelial cells
T1 sequence (P35968 20-1356): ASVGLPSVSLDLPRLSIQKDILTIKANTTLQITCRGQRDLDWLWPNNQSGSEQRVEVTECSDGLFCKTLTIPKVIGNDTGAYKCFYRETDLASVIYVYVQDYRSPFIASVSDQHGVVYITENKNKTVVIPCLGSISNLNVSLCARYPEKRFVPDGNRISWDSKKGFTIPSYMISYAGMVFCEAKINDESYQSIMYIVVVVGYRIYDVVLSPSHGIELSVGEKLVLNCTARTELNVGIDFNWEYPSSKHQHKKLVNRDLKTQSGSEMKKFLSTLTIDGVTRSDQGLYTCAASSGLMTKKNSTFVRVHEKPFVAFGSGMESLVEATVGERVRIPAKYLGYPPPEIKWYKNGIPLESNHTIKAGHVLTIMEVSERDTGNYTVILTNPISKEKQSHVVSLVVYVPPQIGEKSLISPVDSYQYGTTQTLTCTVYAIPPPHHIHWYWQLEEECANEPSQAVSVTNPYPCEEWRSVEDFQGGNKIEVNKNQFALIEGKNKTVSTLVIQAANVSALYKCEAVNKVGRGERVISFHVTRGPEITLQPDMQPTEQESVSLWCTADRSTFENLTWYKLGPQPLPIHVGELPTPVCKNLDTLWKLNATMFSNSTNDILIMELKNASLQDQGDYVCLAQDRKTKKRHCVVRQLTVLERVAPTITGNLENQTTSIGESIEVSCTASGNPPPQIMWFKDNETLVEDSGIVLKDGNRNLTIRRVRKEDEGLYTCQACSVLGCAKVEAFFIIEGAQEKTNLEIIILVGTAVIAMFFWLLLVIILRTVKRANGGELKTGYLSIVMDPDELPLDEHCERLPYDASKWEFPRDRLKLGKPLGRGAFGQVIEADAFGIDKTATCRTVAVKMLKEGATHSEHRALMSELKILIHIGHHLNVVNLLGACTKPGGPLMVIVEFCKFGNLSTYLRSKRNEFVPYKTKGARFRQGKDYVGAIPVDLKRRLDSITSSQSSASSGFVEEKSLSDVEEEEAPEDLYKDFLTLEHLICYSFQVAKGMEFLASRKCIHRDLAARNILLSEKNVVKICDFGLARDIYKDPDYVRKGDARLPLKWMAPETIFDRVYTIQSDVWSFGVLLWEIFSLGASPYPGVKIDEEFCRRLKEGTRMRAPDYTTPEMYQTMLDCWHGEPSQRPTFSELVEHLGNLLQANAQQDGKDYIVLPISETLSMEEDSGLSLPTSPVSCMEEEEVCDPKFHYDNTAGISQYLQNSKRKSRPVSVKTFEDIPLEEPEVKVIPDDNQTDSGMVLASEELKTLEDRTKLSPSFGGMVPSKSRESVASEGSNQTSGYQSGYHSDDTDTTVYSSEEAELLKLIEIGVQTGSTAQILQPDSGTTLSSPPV
Procedure: In the present example, BO-2590 and BO-2577 were subject to the test of their activity in suppressing VEGFR-2 by western blotting analysis. Briefly, the endothelial EA.hy926 cells were incubated with BO-2590 or BO-2577 at various concentrations for 12 hr. The primary antibodies, anti-VEGFR-2 and anti-p-VEGFR-2, were used to blot the proteins of total VEGFR-2 and p-VEGFR-2, respectively. Results are illustrated in FIG. 3.

H526 cells = test: single cell electrophoresis (comet) assay; format: cell-based; conditions: FIG. 2
From the text: The data is the average of 3 independent experiments.
To this purpose, cells were encapsulating in a low-melting-point agarose suspension on a microscope slide, then were lysed in neutral or alkaline (pH>13) condition, and electrophoresis of the suspended lysed cells. The term “comet” refers to the pattern of DNA migration through the electrophoresis gel, which often resembles a comet, and the intensity of the comet tail relative to the head reflects the number of DNA breaks.

H211 cells = test: combination with cisplatin, proliferation by PrestoBlue assay; format: cell-based; conditions: co-administration of BO-2768 and cisplatin, ratio 1:2, 1:4 and 1:8; FIG. 9
Procedure: In this example, whether synergistic effect on the suppression of cell proliferation exists between BO-2768 and cisplatin was investigated. To this purpose, H211 cells were treated with BO-2768 or cisplatin, alone or in combination, and proliferation rate of H211 cells was analyzed by PrestoBlue assay. Results are depicted in FIG. 9.

H211 = test: in vitro cytotoxicity to SCLC cells; format: cell-based, human; conditions: Table 3
Summary of the method: (§1)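 SCLC lines exposed to compounds for 72 h, then viability measured by PrestoBlue (1–2 h at 37° C, absorbance 570/600 nm).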

H146 = test: in vitro cytotoxicity to SCLC cells; format: cell-based, human; conditions: Table 3
Summary of the method: as §1

H82 = test: in vitro cytotoxicity to SCLC cells; format: cell-based, human; conditions: Table 3
Summary of the method: as §1

H1417 = test: in vitro cytotoxicity to SCLC cells; format: cell-based, human; conditions: Table 3
Summary of the method: as §1

Row | Compound | γ-H2AX signals, quantitative analysis (γ-H2AX) | proportion of Annexin V+ cells (H460 cell lines) | cell migration (endothelial cells) | cell cycle progression (H460 lung cancer cells; 0.125-2 μM, 24, 48 and 72 hr, FIG. 5) | sub-G1 (apoptotic) cells (H460 lung cancer cells; 48 or 72 hr, FIG. 6) | p-VEGFR-2 protein levels (VEGFR-2; EA.hy926 cells, 12 hr, FIG. 3) | total protein levels of VEGFR-2 (VEGFR-2; EA.hy926 cells, 12 hr, FIG. 3) | dose effective on suppression of p-VEGFR-2, lower than that of Valatanib (VEGFR-2; relative to Valatanib) | DNA damage (comet tail) (H526 cells) | numbers of proliferated H211 cells, combination effect (H211 cells) | IC50 (H211) | IC50 (H146) | IC50 (H82) | IC50 (H1417)
1 | Cc1c(CO)c(CO)c2c3ccccc3c(N3CCC(N4CCCCC4)CC3)nn12 [BO-2590, (6-([1,4′-Bipiperidin]-1′-yl)-3-methylpyrrolo[2,1-α]phthalazine-1,2-diyl)dimethanol] | time-dependently increased in γ-H2AX signals | significantly increased the proportion of Annexin V^+ cells in a dose-dependent manner | impairment in cell migration | dose-dependently interfered with cell cycle progression | dose-dependently induced the sub-G1 cells | marked suppression in p-VEGFR-2 protein levels | did not significantly change the total protein levels of VEGFR-2 | ~10 folds |  |  |  |  |  | 
2 | Cc1c(CO)c(CO)c2c3cc4ccccc4cc3c(N(C)C)nn12 [BO-2768, (6-(Dimethylamino)-3-methylbenzo[g]pyrrolo[2,1-α]phthalazine-1,2-diyl)dimethanol] |  |  |  |  |  |  |  |  | capable of inducing DNA breaks in a dose dependent manner | synergistic reduction in the numbers of proliferated H211 cells | 170 ± 70 nM | 1170 ± 290 nM | 310 ± 140 nM | 420 ± 190 nM
